From patent US20140227375A1, “PIP-2 Inhibition-Based Antiviral and Anti-Hyperlipidemic Therapies” (priority 2008, published 2014)

Target: HCV replication
Assay: Luciferase reporter-linked transient HCV replication assay (FL-J6/JFH-5′C19Rluc2AUbi RNA)
Format: cell-based, hepatitis C virus (HCV)
Description: FIGS. 7A-7B. A PIP-2 ligand inhibits HCV replication in a dose-dependent manner. Luciferase reporter-linked HCV replication assay. Huh 7.5 cells were electroporated with 10 ug of in vitro-transcribed wild type, FL-J6/JFH-5′C19Rluc2AUbi RNAs. Electroporated cells were treated with […] of neomyin. Renilla luciferase activities were measured at 5 days after electroporation. Alamar blue assays were performed to compare relative cell viabilities.
The NS5A PIP2 interaction is amenable to pharmacologic disruption. […] Such inhibitors represent a valuable new class of anti-HCV agents to be included in future therapeutic cocktails designed to maximize efficiency of, and minimize resistance to, therapies for treating hepatitis C.
The electroporated cells were diluted in 18 ml of cell culture medium. 1 ml of cells was aliquoted in 6 well tissue culture plates. Electroporated cells were treated with 0, 172, 345, 689, 1378, and 2756 μM of neomyin for 5 days. Renilla luciferase activities were measured by using renilla luciferase kit from Promega (Madison, Wis.).

In the case of neomycin, the EC50 (Renilla luciferase activity 5 days after electroporation, read-out: EC50 against HCV replication) is reported as 200 µM and the “inhibition of HCV genome replication” value (increasing concentrations of neomycin (0-2756 μM), 5 days) is reported as “dose-dependent increase in inhibition of HCV genome replication”.
